Patent US7220720B2, “Melanin-concentrating hormone analogs” (Merk & Co., Inc., priority 2000, dated 2007)
Where a SMILES comes first, the peptide text is derived from it. Bridges are numbered along the chain shown (N, C = ends).

Columns and labels:
human MCH receptor [1] = molecular target: T1, human MCH receptor (Homo sapiens, UniProt Q99705); assay: Aequorin bioluminescence functional assay in 293-AEQ17 cells transfected with human MCH receptor; type: cell-based; set-up: expressed in transfected cells; host or cells: 293-AEQ17 (aequorin-expressing HEK-293 reporter line), transient lipofectamine transfection, pcDNA-3 vector; Activity Activation %: concentration or dose not given beside the values; details: for % Activation at 10 μM: Table 1, aequorin functional assay
T1 sequence (Q99705 whole entry): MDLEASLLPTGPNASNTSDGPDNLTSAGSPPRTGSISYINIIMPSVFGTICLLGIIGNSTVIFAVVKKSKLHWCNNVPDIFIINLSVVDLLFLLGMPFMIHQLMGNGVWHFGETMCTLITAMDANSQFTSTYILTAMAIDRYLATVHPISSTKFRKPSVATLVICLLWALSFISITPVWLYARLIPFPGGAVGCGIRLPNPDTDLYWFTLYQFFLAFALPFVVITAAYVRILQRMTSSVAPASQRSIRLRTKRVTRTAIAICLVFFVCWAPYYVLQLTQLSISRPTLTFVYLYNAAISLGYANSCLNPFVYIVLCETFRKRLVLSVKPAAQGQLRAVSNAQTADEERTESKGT
Procedure: The aequorin bioluminescence assay is a reliable test for measuring the activity of G protein-coupled receptors that couple through the Gα protein subunit family consisting of Gq and Gll and leads to the activation of phospholipase C, mobilization of intracellular calcium and activation of protein kinase C.
Following approximately 40 hours of expression the apo-aequorin in the cells was charged for 4 hours with coelenterazine (10 μM) under reducing conditions (300 μM reduced glutathione) in ECB buffer (140 mM NaCl, 20 mM KCl, 20 mM HEPES-NaOH [pH=7.4], 5 mM glucose, 1 mM MgCl2, 1 mM CaCl2, 0.1 mg/ml bovine serum albumin).
The cells were harvested, washed once in ECB medium and resuspended to 500,000 cells/ml. 100 μl of cell suspension (corresponding to 5×10^4 cells) was then injected into the test plate containing MCH or MCH analogs, and the integrated light emission was recorded over 30 seconds, in 0.5 second units. 20 μL of lysis buffer (0.1% final Triton X-100 concentration) was then injected and the integrated light emission recorded over 10 seconds, in 0.5 second units. The “fractional response” values for each well were calculated by taking the ratio of the integrated response to the initial challenge to the total integrated luminescence including the Triton X-100 lysis response.

human MCH receptor [2] = molecular target: T1, human MCH receptor; assay: Radiolabeled MCH-R binding assay: inhibition of [125I]-human MCH (Phe13, Tyr19 substituted) binding to cell membranes (filter or SPA format); set-up: expressed in transfected cells; details: Table 1; SPA based assay; read-out: Binding Assay IC50
Procedure: Cell membranes were prepared on ice. Each T-75 flask was rinsed twice with 10 ml of Enzyme-free Cell Dissociation Buffer (Specialty Media, Lavallette, N.J.), and the cell monolayer was detached in an additional 10 ml of Enzyme-free Cell Dissociation Buffer by incubation at room temperature for 10 minutes. Dissociated cells were centrifuged (500×g for 10 minutes at 4° C.), resuspended in 5 ml homogenization buffer (10 mM Tris-HCl, pH 7.4, 0.01 mM Pefabloc, 10 μM phosphoramidon, 40 μg/ml bacitracin) and then homogenized using a glass homogenizer (10–15 strokes). The homogenate was centrifuged for 10 minutes (1,000×g at 4° C.). The resulting supernatant was then centrifuged at 38,700×g for 15 minutes at 4° C. Pelleted membranes were resuspended (passed through 25 gauge needle 5 times), snap-frozen on liquid nitrogen, and stored at −80° C. until use.
Binding was performed in a 96-well filter assay or Scintillation Proximity Assay (SPA)-based format using cell membranes from a stable CHO or HEK-293 cell line expressing the MCH receptor. For the filter assay, reactions were performed at 20° C. for 1 hour in a total volume of 0.2 ml containing: 0.05 ml of membrane suspension (˜3 μg protein), 0.02 ml of [^125I]-human MCH (Phe^13, Tyr^19 substituted; 30 pM), 0.01 ml of competitor and 0.12 ml of binding buffer (50 mM Tris-HCl, pH 7.4, 10 mM MgCl2, 2 mM EDTA, 200 μg/ml bacitracin, 1 μM phosphoramidon).
Bound radioligand was separated by rapid vacuum filtration (Packard Filtermate 96-well cell harvester) through GF/C filters pretreated for 1 hour with 1% polyethylenimine. After application of the membrane suspension to the filter, the filters were washed 3 times with 3 ml each of ice-cold 50 mM Tris-HCl, pH 7.4, 10 mM MgCl2, 2 mM EDTA, 0.04% Tween 20 and the bound radioactivity on the filters was quantitated by scintillation counting (TopCount device).
For the SPA-based assay, WGA-PVT beads (NEN Life Sciences Products) were resuspended in Dulbecco's PBS with calcium and magnesium (500 mg beads in 4 ml PBS). For each 96-well assay plate, 0.18 ml of beads was pre-coated with MCH receptor by mixing with 0.2 ml MCH receptor CHO cell membranes (˜0.2–4 mg protein) and 1.5 ml SPA assay buffer (50 mM Tris-HCl, pH 7.4, 10 mM MgCl2, 2 mM EDTA, 0.1% BSA, 12% glycerol). The suspension was mixed gently for 20 minutes, 12.3 ml of assay buffer and protease inhibitors were added (final concentration given): 2 μg/ml leupeptin, 10 μM phosphoramidon, 40 μg/ml bacitracin, 5 μg/ml aprotinin, 0.1 mM Pefabloc.
Coated beads were kept on ice until use. For each well, 0.145 ml of beads were added to Optiplate assay plates (Packard 6005190), followed by 0.002–0.004 ml of competitor and 0.05 ml of [^125I]-human MCH (Phe^13, Tyr^19 substituted; 30 pM). Binding reactions were allowed to proceed at room temperature for 3 hours. Quantitation was performed by scintillation counting (TopCount device).

[3] = Table 6, position 13 modification
[4] = Table 5, position 10 modification
[5] = Table 4, position 6 modification

Compound | Activity Activation % (human MCH receptor [1]; [4]) [%] | Activity Activation % (human MCH receptor [1]; [5]) [%] | other results
CSCC[C@@H]1NC(=O)[C@@H](NC(=O)[C@H](CCCNC(=N)N)NC(C)=O)CSSC[C@@H](C(N)=O)NC(=O)[C@@H]2CCCN2C(=O)[C@H](CCCNC(=N)N)NC(=O)[C@H](Cc2ccccc2)NC(=O)[C@H](C(C)C)NC(=O)[C@H](CCCNC(=N)N)NC(=O)CNC(=O)[C@H](CC(C)C)NC1=O [compound 62] | – | – | Activity Activation % (human MCH receptor [1]; [3]): 96%
CSCC[C@@H]1NC(=O)[C@@H](NC(=O)[C@H](CCCNC(=N)N)NC(C)=O)CSSC[C@@H](C(N)=O)NC(=O)[C@@H]2CCCN2C(=O)[C@H](CCCNC(=N)N)NC(=O)[C@H](Cc2ccc(O)cc2)NC(=O)[C@H](C(C)C)NC(=O)[C@H](CCCNC(=N)N)NC(=O)[C@H](CC(N)=O)NC(=O)[C@H](CC(C)C)NC1=O [compound 51] (Ac-RCMLNRVYRPC-NH2; disulfide 2-11) | 106 | – | EC50 (human MCH receptor [1]; [4]): 23 nM
CSCC[C@@H]1NC(=O)[C@@H](NC(=O)[C@H](CCCNC(=N)N)NC(C)=O)CSSC[C@@H](C(=O)N[C@@H](Cc2ccc(O)cc2)C(N)=O)NC(=O)[C@@H]2CCCN2C(=O)[C@H](CCCNC(=N)N)NC(=O)[C@H](Cc2ccccc2)NC(=O)[C@H](C(C)C)NC(=O)[C@H](CCCNC(=N)N)NC(=O)CNC(=O)[C@H](CC(C)C)NC1=O [compound 8] (Ac-RCMLGRVFRPCY-NH2; disulfide 2-11) | – | – | IC50 (human MCH receptor [2]): 0.16 nM; % Activation at 10 μM (human MCH receptor [1]): 123%
CSCC[C@@H]1NC(=O)[C@@H](NC(=O)[C@H](CCC(=O)O)NC(C)=O)CSSC[C@@H](C(N)=O)NC(=O)[C@@H]2CCCN2C(=O)[C@H](CCCNC(=N)N)NC(=O)[C@H](Cc2ccc(O)cc2)NC(=O)[C@H](C(C)C)NC(=O)[C@H](CCCNC(=N)N)NC(=O)CNC(=O)[C@H](CC(C)C)NC1=O [compound 36] | – | 113 | –
CSCC[C@@H]1NC(=O)[C@@H](NC(=O)[C@H](CCCNC(=N)N)NC(C)=O)CSSC[C@@H](C(N)=O)NC(=O)[C@@H]2CCCN2C(=O)[C@H](CCCNC(=N)N)NC(=O)[C@H](Cc2ccc(O)cc2)NC(=O)[C@H](C(C)C)NC(=O)[C@H](CCCNC(=N)N)NC(=O)[C@H](CO)NC(=O)[C@H](CC(C)C)NC1=O [compound 52] (Ac-RCMLSRVYRPC-NH2; disulfide 2-11 (inferred)) | 104 | – | –
CSCC[C@@H]1NC(=O)[C@@H](NC(=O)[C@H](CCCNC(=N)N)NC(=O)[C@H](CC(C)C)NC(=O)[C@H](CCSC)NC(=O)[C@H](CC(=O)O)NC(=O)[C@H](Cc2ccccc2)NC(=O)[C@@H](N)CC(=O)O)CSSC[C@@H](C(=O)N[C@@H](Cc2c[nH]c3ccccc23)C(=O)N[C@@H](CCC(N)=O)C(=O)N[C@H](C(=O)O)C(C)C)NC(=O)[C@@H]2CCCN2C(=O)[C@H](CCCNC(=N)N)NC(=O)[C@H](Cc2ccc(O)cc2)NC(=O)[C@H](C(C)C)NC(=O)[C@H](CCCNC(=N)N)NC(=O)CNC(=O)[C@H](CC(C)C)NC1=O [compound 11] | 100 | 100 | % Activation at 10 μM (human MCH receptor [1]): 100%; Activity Activation % (human MCH receptor [1]; Table 2, D-amino acid analogs): 100%; Activity Activation % (human MCH receptor [1]; Table 3, N-methyl-amino acid analogs): 100%; Activity Activation % (human MCH receptor [1]; [3]): 100%; Activity Activation % (human MCH receptor [1]; Table 7, combinations and position 8): 100%
CSCC[C@@H]1NC(=O)[C@@H](N)CSSC[C@@H](C(N)=O)NC(=O)[C@@H]2CCCN2C(=O)[C@H](CCCNC(=N)N)NC(=O)[C@H](Cc2ccc(O)cc2)NC(=O)[C@H](C(C)C)NC(=O)[C@H](CCCNC(=N)N)NC(=O)CNC(=O)[C@H](CC(C)C)NC1=O [compound 37] | – | 120 | –
CSCC[C@@H]1NC(=O)[C@@H](NC(=O)[C@H](CCCNC(=N)N)NC(C)=O)CSSC[C@@H](C(N)=O)NC(=O)[C@@H]2CCCN2C(=O)[C@H](CCCNC(=N)N)NC(=O)[C@H](Cc2ccc(O)cc2)NC(=O)[C@H](C(C)C)NC(=O)[C@H](CCCNC(=N)N)NC(=O)[C@H](CC(C)C)NC(=O)[C@H](CC(C)C)NC1=O [compound 48] | 106 | – | –
CSCC[C@@H]1NC(=O)[C@@H](NC(=O)[C@@H]2CCCN2C(C)=O)CSSC[C@@H](C(N)=O)NC(=O)[C@@H]2CCCN2C(=O)[C@H](CCCNC(=N)N)NC(=O)[C@H](Cc2ccc(O)cc2)NC(=O)[C@H](C(C)C)NC(=O)[C@H](CCCNC(=N)N)NC(=O)CNC(=O)[C@H](CC(C)C)NC1=O [compound 33] | – | 133 | –
CSCC[C@@H]1NC(=O)[C@@H](NC(C)=O)CSSC[C@@H](C(N)=O)NC(=O)[C@@H]2CCCN2C(=O)[C@H](CCCNC(=N)N)NC(=O)[C@H](Cc2ccc(O)cc2)NC(=O)[C@H](C(C)C)NC(=O)[C@H](CCCNC(=N)N)NC(=O)CNC(=O)[C@H](CC(C)C)NC1=O [compound 38] | – | 82 | –

More lines, main results first:

Activity Activation % (human MCH receptor [1]; [4]) [%] | Activity Activation % (human MCH receptor [1]; [5]) [%] | Compound | other results
– | 106 | CSCC[C@@H]1NC(=O)[C@@H](NC(=O)[C@@H](N)CCCNC(=N)N)CSSC[C@@H](C(N)=O)NC(=O)[C@@H]2CCCN2C(=O)[C@H](CCCNC(=N)N)NC(=O)[C@H](Cc2ccc(O)cc2)NC(=O)[C@H](C(C)C)NC(=O)[C@H](CCCNC(=N)N)NC(=O)CNC(=O)[C@H](CC(C)C)NC1=O [compound 39] | –
– | 120 | CSCC[C@@H]1NC(=O)[C@@H](NC(=O)[C@H](CO)NC(C)=O)CSSC[C@@H](C(N)=O)NC(=O)[C@@H]2CCCN2C(=O)[C@H](CCCNC(=N)N)NC(=O)[C@H](Cc2ccc(O)cc2)NC(=O)[C@H](C(C)C)NC(=O)[C@H](CCCNC(=N)N)NC(=O)CNC(=O)[C@H](CC(C)C)NC1=O [compound 35] | –
– | 96 | CSCC[C@@H]1NC(=O)[C@@H](NC(=O)[C@H](CC(N)=O)NC(C)=O)CSSC[C@@H](C(N)=O)NC(=O)[C@@H]2CCCN2C(=O)[C@H](CCCNC(=N)N)NC(=O)[C@H](Cc2ccc(O)cc2)NC(=O)[C@H](C(C)C)NC(=O)[C@H](CCCNC(=N)N)NC(=O)CNC(=O)[C@H](CC(C)C)NC1=O [compound 34] | –
– | 135 | CSCC[C@@H]1NC(=O)[C@@H](NC(=O)[C@H](C)NC(C)=O)CSSC[C@@H](C(N)=O)NC(=O)[C@@H]2CCCN2C(=O)[C@H](CCCNC(=N)N)NC(=O)[C@H](Cc2ccc(O)cc2)NC(=O)[C@H](C(C)C)NC(=O)[C@H](CCCNC(=N)N)NC(=O)CNC(=O)[C@H](CC(C)C)NC1=O [compound 31] (Ac-ACMLGRVYRPC-NH2; disulfide 2-11 (inferred)) | –
104 | – | CSCC[C@@H]1NC(=O)[C@@H](NC(=O)[C@H](CCCNC(=N)N)NC(C)=O)CSSC[C@@H](C(N)=O)NC(=O)[C@@H]2CCCN2C(=O)[C@H](CCCNC(=N)N)NC(=O)[C@H](Cc2ccc(O)cc2)NC(=O)[C@H](C(C)C)NC(=O)[C@H](CCCNC(=N)N)NC(=O)[C@H](C)NC(=O)[C@H](CC(C)C)NC1=O [compound 47] (Ac-RCMLARVYRPC-NH2; disulfide 2-11) | –
